Assay results as given in US20080200405A1, “Drug Resistance Reversal In Neoplastic Disease” (priority 2007, published 2008).
Like-named read-outs stand apart in the source and are kept apart here.

What was measured:
[1] = system: doxorubicin-sensitive and doxorubicin-resistant cells (osteosarcoma, breast cancer, neuroblastoma); assay: Evaluation of chemoresistance, Compound 4 alone or combined with doxorubicin; assay type: cell-based, human
Protocol: A method for evaluating a compound's propensity to overcome cancer cell chemoresistance is described in “Caspase Inhibition Switches Doxorubicin-Induced Apoptosis To Senescence”, Abdelhadi Rebbaa, Xin Zheng, Pauline M Chou and Bernard L Mirkin, Oncogene (2003) 22, 2805-2811. Human neuroblastoma SKN-SH cells (ATCC Cat. No. HTB-11) were cultured in Dulbecco's Modified Eagles Medium (DMEM; Gibco, Grand Island, N.Y.) supplemented with 10% fetal bovine serum (FBS; Sigma-Aldrich, St. Louis, Mo.) at 37° C. in a 95% Air/5% CO2 atmosphere. Resistant human cancer cells to doxorubicin were selected by stepwise exposure to drug concentrations ranging from 10^−9M-10^−6M over 3 months. They were then subjected to treatment with the doxorubicin alone or in combination with hydroxylamine compounds. The cells were incubated with the drugs for 72 hours, and cell viability was measured by the MTT assay. This consists of adding 10 μl/well of MTT (5 mg/ml solution) and incubation for 4 h at 37° C. The precipitate formed is then solubilized by addition of 100 μl of HCL 0.5 N/Isopropanol and incubation for 15 hours at 37° C. The optical density is measured at 570 nm and cell survival is estimated by comparison to untreated cells. Each point represents 4 wells data represent average +/−SE. Additionally, molecular pathways that might be associated with increased chemo-responsiveness with these compounds were investigated.
Cytotoxic activity of doxorubicin and hydroxylamine analogs were quantitatively determined by a colorimetric assay utilizing 3-(4,5-dimethyl-2-thiazolyl) 2,5-diphenyl tetrazolium bromide (MTT; Sigma-Aldrich, St. Louis, Mo.). Briefly, cells were seeded at 10^4 cells/well in 96-well plates and maintained in culture for 24 hours at 37° C. in DMEM supplemented with 10% FBS. […] The optical density of this solution was measured at 570 nm and the percentage of viable cells estimated by comparison with untreated control cells.

[2] = system: bFGF-induced angiogenesis in the CAM model; assay: bFGF (FGF2)-stimulated CAM model; assay type: in vivo, chicken; conditions: bFGF/FGF2 1 ug, 30 ug injected
Protocol: (§1) In vivo neovascularization was examined by the method previously described by Auerbach et al. (J. Dev. Biol. 41:391-394 (1974)). Ten-day old chicken embryos were purchased from Spafas, Inc. (Preston, Conn.) and were incubated at 37° C. with 55% relative humidity. In the dark, with the aid of a candling lamp, a small hole was punctured in the shell concealing the air sac with a hypodermic needle. A second hole was punctured in the shell on the broadside of the egg directly over an […] portion of the embryonic membrane, as observed during candling. An artificial air sac was created beneath the second hole by applying gentle vacuum to the first hole using a small rubber squeeze bulb. The vacuum caused the chorioallantoic membrane (CAM) to separate from the shell.
For inducing angiogenesis, sterile filter disks were saturated with bFGF (1 μg/ml) (Life Technologies, Gaithersburg, Md.) or other pro-angiogenesis factors and control disks were saturated with PBS without Calcium and Magnesium. Control disks were saturated with PBS without Calcium and Magnesium.
After 24-48 hr, 10-25 ul of test agent was injected intravenously or added topically into the CAM membrane. Eight-Ten eggs/treatment group were used.
(§2) The number of vessel branch points contained in a circular region equal to the area of a filter disk was counted for each section. Percent inhibition data are expressed as the quotient of the experimental value minus the negative control value divided by the difference between the positive control value and the negative control value. One image was counted in each CAM preparation, and findings from eight CAM preparations were analyzed for each treatment condition. In addition, each experiment was performed three times. The resulting angiogenesis index is the mean ±SEM (Standard Error of Measurement) of new branch points in each set of treatment. Statistical analysis of blood vessel branching patterns are performed by 1-way analysis of variance (ANOVA) comparing experimental with corresponding control groups. Statistical significance differences are assessed at P value of <0.05.
The CAM model protocol was modified to include stimulus with bFGF. The effect of injected OT 551 was assayed.
TP-H was applied to the CAM model study to determine its respective anti-angiogenesis effects according to the materials and methods provided in Example 1. Basic Fibroblast Growth Factor (bFGF) was used to induce angiogenesis in the CAM model.
Compounds were introduced via injection to the CAM model study to determine its respective anti-angiogenesis effects according to the materials and methods provided in Example 1. bFGF was used to induce angiogenesis in the CAM model.

[3] = system: Human whole blood clot formation; conditions: for Clot Strength - MA / Time to Clot Initiation R: TEG, human whole blood
Protocol: TEG: Human whole blood (±drugs) was added to the cylindrical cuvette (“cup”). […] The cup oscillates 4°45′ ( 1/12 radian) in either direction every 4.5 seconds, with a 1-second mid-cycle stationary period, resulting in a frequency of 0.1 Hz and a maximal shear rate of 0.1 per second. The pin was suspended by a torsion wire that acts as a torque transducer. […] The torque experienced by the pin (relative to the oscillation of the cup) was plotted as a function of time (Forsythe, S. A. M. S. K. M. S. (2000): “Comparative In Vitro Efficacy of Different Platelet Glycoprotein IIb/IIIa Antagonists on Platelet-Mediated Clot Strength Induced by Tissue Factor With Use of Thromboelastography.” Arteriosclerosis, Thrombosis, and Vascular Biology 20: 1162).
(Data represent mean ±SD, n=6 (blood form normal healthy volunteers), *P<0.01 as compared to control)

[4] = system: Doxorubicin resistant SaOS2 cells; assay: Cancer cell viability (MTT) in the presence or absence of doxorubicin; assay type: cell-based, human; conditions: compound 50 ug/mL, 3 days
[5] = system: TNFα; assay: Measurement of LPS Induced-TNFα in THP-1 Cells; assay type: cell-based, human; conditions: Homo sapiens, THP-1
[6] = system: Lipid peroxidation; assay: Lipid peroxidation inhibition (method of Ohkawa); assay type: biochemical
[7] = system: lens endothelial cells; conditions: in vitro; cited from earlier work
[8] = system: mouse V79 cells; conditions: cited from earlier work
[9] = system: selenite induced cataract; assay: Selenite induced cataract in mice; conditions: mouse, in vivo
Source text: In addition, as mentioned above, there is no precedent for the prevention of growth factor-induced angiogenesis by either TEMPOL or hydroxylamines.

[10] = system: H2O2-induced angiogenesis in the CAM model; assay: H2O2-induced angiogenesis in the CAM model; assay type: in vivo, chicken; conditions: for Branch pts ± SEM: H2O2 88 μM, 30 ng
Protocol: as §1
A pro-angiogenic agent was added to induce new blood vessel branches on the CAM of 10-day old embryos. Filter disks of #1 filter paper (Whatman International, United Kingdom) were punched using a small puncher and were soaked in 3 mg/mL cortisone acetate (Sigma, St. Louis, Mo.) in a solution (95% ethanol and water). The disks were subsequently air dried under sterile conditions. The disks were then suspended in PBS (Phosphate Buffered Saline) and placed on growing CAMs. Filters treated with TP-H (TEMPOL-H) or TEMPOL and/or H2O2 or TP-H and/or bFGF or VEGF were placed on the first day of the 3-day incubation.
as §2
TP-H (TEMPOL-H, the hydroxylamine reduced form of the nitroxide 4-hydroxy-2,2,6,6-tetramethylpiperidin-1-yloxy) or TEMPOL (4-hydroxy-2,2,6,6-tetramethylpiperidine-N-oxyl radical) was applied to the CAM model study to determine its respective anti-angiogenesis effects according to the materials and methods provided in Example 1. H2O2 was used to induce angiogensis in the CAM model.

[11] = Bevacizumab 1 ng/cup + Comp. 4 1 uM
[12] = Bevacizumab 1 ng/cup + Comp. 4 10 uM
[13] = Ranibizumab 1 ng/cup + Comp. 4 1 uM
[14] = Ranibizumab 1 ng/cup + Comp. 4 10 uM

CC1(C)CC(Oc2nsnc2N2CCOCC2)CC(C)(C)N1O.Cl [Compound 4, 4-(4-(2,2,6,6-tetramethylpiperidin-1-hydroxyl-4-yloxy)-1,2,5-thiazol-3-yl)morpholine hydrogen chloride]
underlying mechanism (cell cycle arrest, apoptosis markers) [1]: increased expression of p21/WAF1 and caspase-3 activation
reversal of drug resistance ([1]; combined with doxorubicin, osteosarcoma, breast cancer, neuroblastoma): strong ability to reverse drug resistance
killing of cells, compound alone ([1]; doxorubicin-sensitive and doxorubicin-resistant cells): enhanced the killing of both doxorubicin-sensitive (P<0.001) and doxorubicin-resistant cells
inhibition in vivo at 0.03 mg ([2]; Gallus gallus, read-out: % Inhibition ± SEM): 92.8 ± 16.5%
Branch pts ± SEM [2]: 72.3 ± 12.2
Clot Strength - MA [3, 11]: 9.6 ± 2.3 mm
Time to Clot Initiation R [3, 11]: 14.3 ± 2.2 min
Clot Strength - MA [3, 12]: 5.0 ± 1.2 mm
Time to Clot Initiation R [3, 12]: 21.3 ± 4.2 min
Clot Strength - MA [3, 13]: 6.7 ± 1.5 mm
Time to Clot Initiation R [3, 13]: 16.8 ± 1.7 min
Clot Strength - MA [3, 14]: 2.7 ± 0.7 mm
Time to Clot Initiation R [3, 14]: 23.3 ± 2.3 min
effect on clot formation with Bevacizumab/Ranibizumab ([3]; compound 4 at 1 ug and 10 ug): delayed the clot formation
Mean OD (×10^−3), MTT viability ([4]; Dox. 10^−6 M (+)): 88.00 ×10^−3
Mean OD (×10^−3), MTT viability ([4]; absence of Dox. (−)): 468.50 ×10^−3
inhibition at 10 µM ([5]; compound 10 uM, 5 ng/mL LPS, read-out: Mean Percent Inhibition of TNF-alpha using 5 ng/mL LPS): 61 ± 10%
IC50 ([5]; read-out: TNFalpha IC50): 6.7 µM
% Lipid Peroxidation inhibition (at 1 uM) ([6]; 1 uM): 87.0%
Lipid Peroxidation Inhibition, % Inhibition ([6]; 10 uM): 91.4%

CC1(C)CC(O)CC(C)(C)N1[O] [TEMPOL, 4-hydroxy-2,2,6,6-tetramethylpiperidine-N-oxyl radical, reference compound]
prevention of X-ray radiation damage to lens endothelial cells [7]: prevented X-ray radiation damage
radioprotection of mouse V79 cells [8]: concentration dependent
prevention of selenite induced cataract [9]: not effective
Branch pts ± SEM ([10]; 100 μg): 152.2 ± 18.8
Branch pts ± SEM ([10]; 200 μg): 151.8 ± 12.5
Branch pts ± SEM ([10]; 400 μg): 150.0 ± 7.7
Branch pts ± SEM ([10]; 800 μg): 122.8 ± 3.0
inhibition of angiogenesis induced by super-maximal concentrations of H2O2 ([10]; in vivo): effectively inhibited
